Data published in US7812021B2, “Pyrrolidine aryl-ether as NK3 receptor antagonists” (Hoffmann-La Roche Inc., priority 2007, dated 2010).

tested on: not given; assay: not given; conditions: phase II trial; altered behaviour, delusion, hallucinations, extreme emotions, excited motor activity, incoherent speech; cited from earlier work

Molecule	activity on positive symptoms of schizophrenia
CC(=O)N(C)C1(c2ccccc2)CCN(CCC[C@]2(c3ccc(Cl)c(Cl)c3)CCCN(C(=O)c3ccccc3)C2)CC1 [SR 142,801, Osanetant]	active

same assay, conditions: phase II trial; depression, anhedonia, social isolation, memory and attention deficits; cited from earlier work

Molecule	activity in the treatment of negative symptoms of schizophrenia
CC(=O)N(C)C1(c2ccccc2)CCN(CCC[C@]2(c3ccc(Cl)c(Cl)c3)CCCN(C(=O)c3ccccc3)C2)CC1 [SR 142,801, Osanetant]	inactive

molecular target: T1, recombinant human NK3 receptor (Homo sapiens, UniProt P29371); assay: [3H]SR142801 competition binding assay; conditions: membranes from HEK293 cells transiently expressing recombinant human NK3 receptor; [3H]SR142801 radioligand; Ki by Cheng-Prussoff
T1 construct: expressed in transfected cells; host or cells: HEK293 cells, transient expression; membranes
T1 sequence (P29371 1-465): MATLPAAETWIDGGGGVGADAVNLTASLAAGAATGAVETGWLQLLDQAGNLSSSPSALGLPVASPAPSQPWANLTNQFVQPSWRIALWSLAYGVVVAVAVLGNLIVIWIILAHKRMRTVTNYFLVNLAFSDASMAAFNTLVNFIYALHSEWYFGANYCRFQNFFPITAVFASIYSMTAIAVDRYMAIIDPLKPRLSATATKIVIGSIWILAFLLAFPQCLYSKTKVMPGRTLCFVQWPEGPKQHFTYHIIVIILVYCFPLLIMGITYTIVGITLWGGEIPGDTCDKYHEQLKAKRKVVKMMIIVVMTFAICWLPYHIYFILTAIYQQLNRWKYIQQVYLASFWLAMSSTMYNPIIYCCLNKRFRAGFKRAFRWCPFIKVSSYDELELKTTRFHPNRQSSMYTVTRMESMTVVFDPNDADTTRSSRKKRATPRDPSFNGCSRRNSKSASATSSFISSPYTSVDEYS
Protocol: [^3H]SR142801 Competition Binding Assay
hNK3 receptor binding experiment were performed using [^3H]SR142801 (Catalog No. TRK1035, specific activity: 74.0 Ci/mmol, Amersham, GE Healthcare UK limited, Buckinghamshire, UK) and membrane isolated from HEK293 cells transiently expressing recombinant human NK3 receptor. After thawing, the membrane homogenates were centrifuged at 48,000×g for 10 min at 4° C., the pellets were resuspended in the 50 mM Tris-HCl, 4 mM MnCl2, 1 μM phosphoramidon, 0.1% BSA binding buffer at pH 7.4 to a final assay concentration of 5 μg protein/well. For inhibition experiments, membranes were incubated with [^3H]SR142801 at a concentration equal to KD value of radioligand and 10 concentrations of the inhibitory compound (0.0003-10 μM) (in a total reaction volume of 500 μl) for 75 min at room temperature (RT). At the end of the incubation, membranes were filtered onto unit filter (96-well white microplate with bonded GF/C filter preincubated 1 h in 0.3% PEI+0.3% BSA, Packard BioScience, Meriden, Conn.) with a Filtermate 196 harvester (Packard BioScience) and washed 4 times with ice-cold 50 mM Tris-HCl, pH 7.4 buffer. Nonspecific binding was measured in the presence of 10 μM SB222200 for both radioligands. The radioactivity on the filter was counted (5 min) on a Packard Top-count microplate scintillation counter with quenching correction after addition of 45 μl of microscint 40 (Canberra Packard S. A., Zürich, Switzerland) and shaking for 1 h. Inhibition curves were fitted according to the Hill equation: y=100/(1+(x/IC50)^nH), where nH=slope factor using Excel-fit 4 software (Microsoft). IC50 values were derived from the inhibition curve and the affinity constant (Ki) values were calculated using the Cheng-Prussoff equation Ki=IC50/(1+[L]/KD) where [L] is the concentration of radioligand and KD is its dissociation constant at the receptor, derived from the saturation isotherm. All experiments were performed in duplicate and the mean±standard error (SEM) of the individual Ki values was calculated.

Molecule	Ki [nM]
C[C@H](Oc1ccc(Cl)cc1)[C@@H]1CN(C(=O)N2CCN(S(C)(=O)=O)CC2)C[C@H]1c1ccc(Cl)c(Cl)c1 (racemic) [Example 48, [(3SR,4RS)-3-[(SR)-1-(4-Chloro-phenoxy)-ethyl]-4 (3,4-dichloro-phenyl)-pyrrolidin-1-yl]-(4-methanesulfonyl-piperazin-1-yl)-methanone]	68
C[C@@H](Oc1ccc(Cl)cn1)[C@@H]1CN(C(=O)N2CCN(CCN(C)C)CC2)C[C@H]1c1ccc(Cl)c(Cl)c1 (racemic) [Example 56, [(3SR,4RS)-3-[(RS)-1-(5-Chloro-pyridin-2-yloxy)-ethyl]-4-(3,4-dichloro-phenyl)-pyrrolidin-1-yl]-[4-(2-dimethylamino-ethyl)-piperazin-1-yl]-methanone]	2.6
C[C@H](Oc1ccc(C(F)(F)F)cn1)[C@H]1CN(C(=O)N2CCN(S(C)(=O)=O)CC2)C[C@@H]1c1ccc(Cl)c(Cl)c1 (racemic) [Example 69, {(3SR,4RS)-3-(3,4-Dichloro-phenyl)-4-[(SR)-1-(5-trifluoromethyl-pyridin-2-yloxy)ethyl]-pyrrolidin-1-yl}-(4-methanesulfonyl-piperazin-1-yl)-methanone]	5.6
Cc1ccc(O[C@H](C)[C@@H]2CN(C(=O)N3CCN(S(C)(=O)=O)CC3)C[C@H]2c2ccc(Cl)c(Cl)c2)cc1 (racemic) [Example 31, [(3RS,4SR)-3-(3,4-Dichloro-phenyl)-4-((RS)-1-p-tolyloxy-ethyl)-pyrrolidin-1-yl]-(4-methanesulfonyl-piperazin-1-yl)-methanone]	58.9
CC(=O)NC1CCN(CC(=O)N2C[C@@H]([C@@H](C)Oc3ccc(C(F)(F)F)cc3)[C@H](c3ccc(Cl)c(Cl)c3)C2)CC1 (racemic) [Example 25, N-[1-(2-{(3RS,4SR)-3-(3,4-Dichloro-phenyl)-4-[(RS)-1-(4-trifluoromethyl-phenoxy)-ethyl]-pyrrolidin-1-yl}-2-oxo-ethyl)-piperidin-4-yl]-acetamide]	59.7
C[C@@H](Oc1ccc(Cl)cc1)[C@@H]1CN(C(=O)CN2CCC(CO)CC2)C[C@H]1c1ccc(Cl)c(Cl)c1 (racemic) [Example 67, 1-[(3SR,4RS)-3-[(RS)-1-(4-Chloro-phenoxy)-ethyl]-4-(3,4-dichloro-phenyl)-pyrrolidin-1-yl]-2-(4-hydroxymethyl-piperidin-1-yl)-ethanone]	53
C[C@@H](Oc1ncc(Cl)cn1)[C@@H]1CN(C(=O)N2CCN(S(C)(=O)=O)CC2)C[C@H]1c1ccc(Cl)c(Cl)c1 (racemic) [Example 53, [(3SR,4RS)-3-[(RS)-1-(5-Chloro-pyrimidin-2-yloxy)-ethyl]-4-(3,4-dichloro-phenyl)-pyrrolidin-1-yl]-(4-methanesulfonyl-piperazin-1-yl)-methanone]	6.8

More lines, now with the values ahead:

Ki [nM]	Molecule
93	C[C@H](Oc1ccc(C(F)(F)F)cn1)[C@H]1CN(C(=O)N2CC3CC2CO3)C[C@@H]1c1ccc(Cl)c(Cl)c1 (mixture of isomers) [Example 73, {(3SR,4RS)-3-(3,4-Dichloro-phenyl)-4-[(SR)-1-(5-trifluoromethyl-pyridin-2-yloxy)-ethyl]-pyrrolidin-1-yl}-(2-oxa-5-aza-bicyclo[2.2.1]hept-5-yl)-methanone]
86	C[C@H](Oc1ccc(C#N)cn1)[C@H]1CN(C(=O)CN2CCC(C#N)CC2)C[C@@H]1c1ccc(Cl)c(Cl)c1 (racemic) [Example 70, 6-{(SR)-1-[(3RS,4SR)-1-[2-(4-Cyano-piperidin-1-yl)-acetyl]-4-(3,4-dichloro-phenyl)-pyrrolidin-3-yl]-ethoxy}-nicotinonitrile]
59.5	C[C@@H](Oc1ccc(C(F)(F)F)cc1)[C@@H]1CN(C(=O)CN2CCC(N(C)S(C)(=O)=O)CC2)C[C@H]1c1ccc(Cl)c(Cl)c1 (racemic) [Example 20, N-[1-(2-{(3RS,4SR)-3-(3,4-Dichloro-phenyl)-4-[(RS)-1-(4-trifluoromethyl-phenoxy)-ethyl]-pyrrolidin-1-yl}-2-oxo-ethyl)-piperidin-4-yl]-N-methyl-methanesulfonamide]
58.9	CC(=O)N1CCN(CC(=O)N2C[C@@H]([C@@H](C)Oc3ccc(C(F)(F)F)cc3)[C@H](c3ccc(Cl)c(Cl)c3)C2)CC1 (racemic) [Example 24, 2-(4-Acetyl-piperazin-1-yl)-1-{(3RS,4SR)-3-(3,4-dichloro-phenyl)-4-[(RS)-1-(4-trifluoromethyl-phenoxy)-ethyl]-pyrrolidin-1-yl}-ethanone]
46.8	C[C@H](Oc1ccc(C(F)(F)F)cc1)[C@@H]1CN(C(=O)N2CCN(S(C)(=O)=O)CC2)C[C@H]1c1ccc(Cl)c(Cl)c1 (racemic) [Example 17, {(3RS,4SR)-3-(3,4-Dichloro-phenyl)-4-[(SR)-1 (4-trifluoromethyl-phenoxy)-ethyl]-pyrrolidin-1-yl}-(4-methanesulfonyl-piperazin-1-yl)-methanone]
28.8	C[C@@H](Oc1ccc(C(F)(F)F)cc1)[C@@H]1CN(C(=O)N2CCN(S(C)(=O)=O)CC2)C[C@H]1c1ccc(Cl)c(Cl)c1 (racemic) [Example 16, {(3RS,4SR)-3-(3,4-Dichloro-phenyl)-4-[(RS)-1-(4-trifluoromethyl-phenoxy)-ethyl]-pyrrolidin-1-yl}-(4-methanesulfonyl-piperazin-1-yl)-methanone]
24	C[C@@H](Oc1ccc(Cl)cn1)[C@@H]1CN(C(=O)N2CCN3C(=O)CCC3C2)C[C@H]1c1ccc(Cl)c(Cl)c1 (mixture of isomers) [Example 62, 2-[(3SR,4RS)-3-[(RS)-1-(5-Chloro-pyridin-2-yloxy)-ethyl]-4-(3,4-dichloro-phenyl)-pyrrolidine-1-carbonyl]-hexahydro-pyrrolo[1,2-a]pyrazin-6-one]
20	N-(1-{2-[(3SR,4RS)-[3-(RS)-1-(4-Chloro-phenoxy)-ethyl]-4-(3,4-dichloro-phenyl)-pyrrolidin-1-yl]-2-oxo-ethyl}-piperidin-4-yl)-N-methyl-acetamide [Example 65]
12	CS(=O)(=O)N1CCN(C(=O)N2C[C@@H](COc3ccc(Cl)cn3)[C@H](c3ccc(Cl)c(Cl)c3)C2)CC1 (racemic) [Example 63]
11	CC(=O)N1CCN(CC(=O)N2C[C@@H]([C@@H](C)Oc3ccc(Cl)cc3)[C@H](c3ccc(Cl)c(Cl)c3)C2)CC1 (racemic) [Example 66, 2-(4-Acetyl-piperazin-1-yl)-1-[(3SR,4RS)-3-[(RS)-1-(4-chloro-phenoxy)-ethyl]-4-(3,4-dichloro-phenyl)-pyrrolidin-1-yl]-ethanone]
8.7	C[C@H](Oc1ccc(C#N)cn1)[C@H]1CN(C(=O)N2CCC(C#N)CC2)C[C@@H]1c1ccc(Cl)c(Cl)c1 (racemic) [Example 71]
2.9	C[C@@H](Oc1ccc(Cl)cn1)[C@@H]1CN(C(=O)N2CCN(S(C)(=O)=O)CC2)C[C@H]1c1ccc(Cl)c(Cl)c1 (racemic) [Example 39, [(3SR,4RS)-3-[(RS)-1-(5-Chloro-pyridin-2-yloxy)-ethyl]-4-(3,4-dichloro-phenyl)-pyrrolidin-1-yl]-(4-methanesulfonyl-piperazin-1-yl)-methanone]
